One block for each compound: values may come before it.
Assays:
[1] = molecular target: T1, Aβ 1-42 (Homo sapiens, UniProt P05067); assay: Assay 1 Fluorometric H2O2 assay (peroxide); format: biochemical; details: inhibition of H2O2 generation by Aβ with copper
T1 construct: The reaction solutions contained Aβ 1-42 at concentrations
Experimental: Assay 1. Fluorometric H2O2 Assay
A fluorometric assay was used to test the ability of a test compound to inhibit hydrogen peroxide generation by Aβ in the presence of copper based on dichlorofluoroscein diacetate (DCF; Molecular Probes, Eugene Oreg.). The DCF solution (5 mM) in 100% dimethyl sulphoxide (previously purged with argon for 1 hr at 20° C.) was deacetylated in the presence of 0.025M NaOH for 30 min and neutralised at pH 7.4 to a final concentration of 1 mM. Horseradish peroxidase (HRP) stock solution was prepared to 1 μM at pH 7.4. The reactions were carried out in PBS, pH 7.4 in a 96 well plate (total volume=250 μl/well). The reaction solutions contained Aβ 1-42 at concentrations in the range of 50 nM to 1 μM, copper-glycine chelate (Cu-Gly), was prepared by adding CuCl2 to glycine in the ratio of 1:6 and added to the Aβ in the proportion 2Cu-Gly:1Aβ), reducing agents including dopamine (5 μM) or ascorbic acid, deacetylated DCF 100 μM, and HRP, 0.1 μM. 1-10 μM EDTA or another chelator may also be present as a control for free copper, but was not required for the assay to function. The reaction mixture was incubated at 37 C for 60 min. Catalase (4000 units/ml) and H2O2 (1-2.5 μM) standards in PBS pH 7.4 may be included as positive controls. Fluorescence was recorded using a plate reader with excitation and emission filters at […] respectively. H2O2 concentration may be established by comparing fluorescence with the H2O2 standards. Inhibition of Aβ H2O2 production was assayed by including a given concentration of test compound(s) in the test wells.

[2] = Assay 3(d) test compound cytotoxicity (MTS); format: cell-based; details: BL6Jx129sv, mouse, primary cortical neuronal cultures, cortical neurons; for viability at 4 days, 10 µM: read-out: Assay 3(d) Cytotoxicity (% viable at 10 uM); for viability at 4 days, 1 µM: read-out: Assay 3(d) Cytotoxicity (% viable at 1 uM)
Experimental: (§1) Primary Cortical Neuronal Cultures
(§2) Cortical cultures were prepared as previously described (White et al., 1998). Embryonic day 14 BL6Jx129sv mouse cortices were removed, dissected free of meninges and dissociated in 0.025% (wt/vol) trypsin. Dissociated cells were plated in 48 well culture plates at a density of 2×10^6 cells/mL in MEM with 25% (vol/vol) FCS and 5% (vol/vol) HS and incubated at 37° C., 2 hrs. Media was then replaced with Neurobasal media (Invitrogen Life Technologies) and B27 supplements (Invitrogen Life Technologies). Cultures were maintained at 37° C. in 5% CO2. Prior to experimentation, the culture medium was replaced with Neurobasal media and B27 minus antioxidants (Invitrogen Life Technologies).
(a) MTS Assay for Cell Viability
Cell viability is determined using the MTS assay. Culture medium is replaced with fresh neurobasal medium plus B27 supplements minus antioxidants. 1/10 volume MTS solution (Cell Titre 96 Aqueous One, Promega Corporation) and incubated at 37° C., 2 hrs. 200 microlitre aliquots are measured with a spectrophotometer at 560 nm.
(d) Assay for Test Compound Cytoxicity
Neuronal cortical cells were cultured for five days as per Assay 2 in NB media and B27 supplement.
On day six the test compounds were added to the neuronal cell cultures in NB media and B27 supplement minus antioxidants.
Test compounds were dissolved in 100% DMSO to a concentration of 2.5 mM (10 mM if excess compound was weighed out per vial—then diluted to 2.5 mM). 2.5 mM stock solution was serially diluted 1 in 10 to give working solutions of 250 uM, 25 uM, 2.5 uM. Test compounds were not added directly to cells, instead they were added to a 48 well ‘Drug Plate’ as comprised below:
(§3) Preparation of “Drug Plate”:
• Well 1: 576 ul NB+B27 (no antioxidant)*+24 ul 2.5 uM test compound • Well 2: 576 ul NB+B27 (no antioxidant)+24 ul 25 uM test compound • Well 3: 576 ul NB+B27 (no antioxidant)+24 ul 250 uM test compound • Well 4: 576 ul NB+B27 (no antioxidant)+24 ul 2.5 uM test compound • Well 5: 576 ul NB+B27 (no antioxidant)+24 ul 25 uM test compound • Well 6: 576 ul NB+B27 (no antioxidant)+24 ul 250 uM test compound • Well 7: 576 ul NB+B27 (no antioxidant)+24 ul test compound diluent** • Well 8: 600 ul NB+B27 (no antioxidant)
The Drug Plate was incubated at 37° C. for 15 mins. 200 ul of each well was added in triplicate to the corresponding cell plate. The cell plate was incubated at 37° C., for 4 days, (2 compounds are tested on each plate of cells).
* NB media and B27 (no antioxidants),
** PBT diluent 10% DMSO in NB+B27 (no antioxidants)
On completion of the assay, 1/10 volume MTS was added per well of plate (ie 25 ul/250 ul). The plates were incubated at 37° C. for 2 hrs, and then absorbance was read at 560 nm.

[3] = test system: Aβ1-42 toxicity in neuronal cortical cells; assay: Assay 3(c) Aβ neurotoxicity and neuroprotection (MTS); format: cell-based, mouse; details: 20 uM Aβ1-42, cortical neurons, 4 days
Experimental: as §1, §2
(c) Assay for Aβ Neurotoxicity and Aβ Neuroprotection
Neuronal cortical cells were cultured for five days as per Assay 2. On day six the neurobasal (NB) media (Invitrogen Life Technologies) and B27 supplement (Invitrogen Life Technologies) were replaced with NB media and B27 supplement (no antioxidants). On day six, test compounds were individually added to the neuronal cell cultures:
The test compounds were dissolved in 100% DMSO to a concentration of 2.5 mM (10 mM if excess compound was weighed out per vial—then diluted to 2.5 mM). 2.5 mM stock solution was serially diluted 1 in 10 to give working solutions of 250 uM, 25 uM, 2.5 uM.
Aβ was initially dissolved in 20 mM NaOH to a concentration of 1 mM and sonicated for 5 minutes. The peptide was then diluted in H2O and 10×PBS to a final concentration of 200 uM Aβ in 1× PBS. The peptide was again sonicated for 5 minutes and then spun at 14000 rpm for 5 min and transferred to a fresh tube.
The test compounds were dissolved in 100% DMSO to a concentration of 2.5 mM (10 mM if excess compound was weighed out per vial—then diluted to 2.5 mM). 2.5 mM stock solution was serially diluted 1 in 10 [in NB media and B27 (no antioxidants)] to give working solutions of 250 uM, 25 uM, 2.5 uM. Test compounds were not added directly to cells, instead they were added to a 48 well ‘Drug Plate’ as comprised below:
as §3
Well 1: 515 ul NB+B27 (no antioxidant)*+24 ul 25 uM test compound+60 ul Aβ diluent**
Well 2: 515 ul NB+B27 (no antioxidant)+24 ul 250 uM test compound+60 ul Aβ diluent
Well 3: 515 ul NB+B27 (no antioxidant)+24 ul test compound diluent***+60 ul Aβ1-42
Well 4: 515 ul NB+B27 (no antioxidant)+24 ul 2.5 uM test compound+60 ul Aβ1-42
Well 5: 515 ul NB+B27 (no antioxidant)+24 ul 25 uM test compound+60 ul Aβ1-42
Well 6: 515 ul NB+B27 (no antioxidant)+24 ul 250 uM test compound+60 ul Aβ1-42 diluent
Well 7: 515 ul NB+B27 (no antioxidant)+24 ul test compound diluent+60 ul Aβ1-42 diluent
Well 8: 600 ul NB+B27 (no antioxidant)
The Drug Plate was incubated at 37° C. for 15 mins. 200 ul of each well was added in triplicate to the corresponding cell plate. The cell plate was incubated at 37 C, for 4 days.
* NB media+B27 (no antioxidants)
** Aβ diluent 2 mM NaOH, 1×PBS
*** PBT diluent 10% DMSO in NB+B27 (no antioxidant)
On the 4th day after treating the cells the assay is completed by adding MTS to the cells.

[4] = Assay 16 mouse plasma levels of test compounds; format: in vivo; details: highest level found in mice (Up to); oral dosing 30 mg/kg described for PB 1075-1077
Experimental: Assay 16. Determination of Mouse Plasma Levels of Test Compounds PB 1075
(§4) Oral administration of PB 1075 at 30 mg/kg, as a suspension in Na-Carboxymethyl Cellulose (CMC) was administered by oral gavage to four mice. Two mice were sacrificed 30 minutes after administration and two mice were sacrificed 60 minutes after administration. Blood was obtained by cardiac puncture and plasma separated by centrifugation.
The concentration of PB 1075 was determined by LC/MS using the triple quadrupole instrument. The mobile phase consisted of an acetonitrile (ACN)/water gradient (containing 0.05% Formic acid) and the column was a Phenomenex Lunea 5 um C8 (50×2 mm) column.
The supplied acute toxicity mouse plasma samples were directly injected following a protein precipitation with ACN. The analytical method in plasma was linear in the range of 10 to 10,000 ng/ml (R^2=0.994). Recovery of PB 1075 from plasma was ˜100%.
as §4, with “1076” for “1075”
The concentration of PB 1076 was determined by LC/MS using the triple quadrupole instrument. The mobile phase consisted of an acetonitrile (ACN)/water gradient (containing 0.05% Formic acid) and the column was a Phenomenex Luna 5 μM C8 (50×2 mm) column.
The mouse plasma samples were directly injected following a protein precipitation with ACN. The analytical method in plasma was linear in the range of 500 to 10,000 ng/ml (R^2=0.999). Recovery of PB 1076 from plasma was ˜85%.
as §4, with “1077” for “1075”
The concentration of PB 1077 was determined by LC/MS using the triple quadrupole instrument. The mobile phase consisted of an acetonitrile (ACN)/water gradient (containing 0.05% Formic acid) and the column was a Phenomenex Luna 5 μM C8 (50×2 mm) column.
The mouse plasma samples were directly injected following a protein precipitation with ACN. The analytical method in plasma was linear in the range of 5 to 5,000 ng/ml (R^2=0.999). Recovery of PB 1077 from plasma was ˜92%.

T1 sequence (P05067 672-713 limits assumed): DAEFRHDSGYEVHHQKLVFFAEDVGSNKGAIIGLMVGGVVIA

SMILES: O=c1c2c(Cl)cc(Cl)c(O)c2ncn1N1CCOCC1 [Compound 1080]
IC50 [1]: 440 nM | viability at 4 days, 10 µM [2]: 70% | Assay 3(c) Neuroprotection (% inhibition of Abeta toxicity) [3]: 15%

SMILES: CN1CCN(n2cnc3c(O)c(Cl)cc(Cl)c3c2=O)CC1 [Compound 1081]
IC50 [1]: 550 nM | Assay 3(c) Neuroprotection (% inhibition of Abeta toxicity) [3]: 7% | Assay 16 Mice plasma concentration [4]: Up to 207 ng/mL

SMILES: O=c1c2c(Cl)cc(Cl)c(O)c2ncn1CC1CCNCC1 [Compound 1094]
viability at 4 days, 1 µM [2]: 97% | viability at 4 days, 10 µM [2]: 96% | Assay 3(c) Neuroprotection (% inhibition of Abeta toxicity) [3]: 1%

Continued, in another order:

IC50 [1]: 1520 nM
SMILES: O=c1c2c(Cl)cc(Cl)c(O)c2ncn1-c1ccc(Cl)cn1 [Compound 1087]
viability at 4 days, 1 µM [2]: 94% | viability at 4 days, 10 µM [2]: 58% | Assay 3(c) Neuroprotection (% inhibition of Abeta toxicity) [3]: 11%

IC50 [1]: 840 nM
SMILES: CCn1nccc1-n1cnc2c(O)c(Cl)cc(Cl)c2c1=O [Compound 1088]
viability at 4 days, 10 µM [2]: 94% | Assay 3(c) Neuroprotection (% inhibition of Abeta toxicity) [3]: 3%

IC50 [1]: 780 nM
SMILES: Cc1ccc(-n2cnc3c(O)c(Cl)cc(Cl)c3c2=O)nc1 [Compound 1089]
viability at 4 days, 1 µM [2]: 96% | viability at 4 days, 10 µM [2]: 83% | Assay 3(c) Neuroprotection (% inhibition of Abeta toxicity) [3]: 13%

IC50 [1]: 460 nM
SMILES: O=c1c2c(Cl)cc(Cl)c(O)c2ncn1CCc1ccccn1 [Compound 1091]
viability at 4 days, 1 µM [2]: 100% | viability at 4 days, 10 µM [2]: 92% | Assay 3(c) Neuroprotection (% inhibition of Abeta toxicity) [3]: −8%
